In ChEMBL document CHEMBL3045535, “Evaluation of lufenuron as a chemosterilant against fruit flies of the genus Anastrepha (Diptera: Tephritidae)” (2010):
Calls of active or inactive are those of the source. The calls are words filed in the database; no cut-off is given here.

Legend:
[1] = test system: Anastrepha ludens; experiment: Reduction of fertility in 7 days old adult of Anastrepha ludens assessed as reduction of egg hatching at 10 mg/g treated with diet measured after 11 days oviposition; format: functional; set-up: scale not given: the % may be the effect or the level left
[2] = test system: Anastrepha obliqua; experiment: Reduction of fertility in 7 days old adult of Anastrepha obliqua assessed as reduction of egg hatching at 5 mg/g treated with diet measured after 5 days oviposition; format: functional; set-up: scale not given: the % may be the effect or the level left
[3] = test system: Anastrepha serpentina; experiment: Reduction of fertility in 7 days old adult of Anastrepha serpentina assessed as reduction of egg hatching at 0.1 mg/g treated with diet measured after 9 days oviposition; format: functional; set-up: scale not given: the % may be the effect or the level left
[4] = test system: Anastrepha striata; experiment: Effect on fecundity in 7 days old adult female of Anastrepha striata at 30 mg/g treated with diet after 24 hr in presence of untreated adult male of Anastrepha striata; format: functional, organism-based
[5] = test system: Anastrepha serpentina; experiment: Effect on fecundity in 7 days old adult male of Anastrepha serpentina at 30 mg/g treated with diet after 24 hr in presence of untreated adult female of Anastrepha serpentina; format: functional, organism-based
[6] = test system: Anastrepha serpentina; experiment: Reduction of fertility in 7 days old adult of Anastrepha serpentina assessed as reduction of egg hatching at 0.1 mg/g treated with diet measured after 11 days oviposition; format: functional; set-up: scale not given: the % may be the effect or the level left
[7] = test system: Anastrepha obliqua; experiment: Reduction of fertility in 7 days old adult of Anastrepha obliqua assessed as reduction of egg hatching at 0.1 mg/g treated with diet measured after 7 days oviposition; format: functional; set-up: scale not given: the % may be the effect or the level left
[8] = test system: Anastrepha obliqua; experiment: Reduction of fertility in 7 days old adult of Anastrepha obliqua assessed as reduction of egg hatching at 10 mg/g treated with diet measured after 11 days oviposition; format: functional; set-up: scale not given: the % may be the effect or the level left
[9] = test system: Anastrepha serpentina; experiment: Reduction of fertility in 7 days old adult of Anastrepha serpentina assessed as reduction of egg hatching at 30 mg/g treated with diet measured after 11 days oviposition; format: functional; set-up: scale not given: the % may be the effect or the level left
[10] = test system: Anastrepha striata; experiment: Reduction of fertility in 7 days old adult of Anastrepha striata assessed as reduction of egg hatching at 5 mg/g treated with diet measured after 1 day oviposition; format: functional; set-up: scale not given: the % may be the effect or the level left
[11] = test system: Anastrepha obliqua; experiment: Reduction of fertility in 7 days old adult of Anastrepha obliqua assessed as reduction of egg hatching at 1 mg/g treated with diet measured after 11 days oviposition; format: functional; set-up: scale not given: the % may be the effect or the level left
[12] = test system: Anastrepha ludens; experiment: Reduction of fertility in 7 days old adult of Anastrepha ludens assessed as reduction of egg hatching at 5 mg/g treated with diet measured after 9 days oviposition; format: functional; set-up: scale not given: the % may be the effect or the level left
[13] = test system: Anastrepha serpentina; experiment: Reduction of fertility in 7 days old adult of Anastrepha serpentina assessed as reduction of egg hatching at 1 mg/g treated with diet measured after 3 days oviposition; format: functional; set-up: scale not given: the % may be the effect or the level left
[14] = test system: Anastrepha striata; experiment: Reduction of fertility in 7 days old adult of Anastrepha striata assessed as reduction of egg hatching at 5 mg/g treated with diet measured after 7 days oviposition; format: functional; set-up: scale not given: the % may be the effect or the level left
[15] = test system: Anastrepha obliqua; experiment: Reduction of fertility in 7 days old adult of Anastrepha obliqua assessed as reduction of egg hatching at 10 mg/g treated with diet measured after 3 days oviposition; format: functional; set-up: scale not given: the % may be the effect or the level left
[16] = test system: Anastrepha obliqua; experiment: Reduction of fertility in 7 days old adult of Anastrepha obliqua assessed as reduction of egg hatching at 1 mg/g treated with diet measured after 5 days oviposition; format: functional; set-up: scale not given: the % may be the effect or the level left
[17] = test system: Anastrepha striata; experiment: Effect on fertility in 7 days old adult female of Anastrepha striata at 30 mg/g treated with diet after 24 hr in presence of untreated adult male of Anastrepha striata; format: functional, organism-based
[18] = test system: Anastrepha serpentina; experiment: Reduction of fertility in 7 days old adult of Anastrepha serpentina assessed as reduction of egg hatching at 30 mg/g treated with diet measured after 5 days oviposition; format: functional; set-up: scale not given: the % may be the effect or the level left
[19] = test system: Anastrepha serpentina; experiment: Reduction of fertility in 7 days old adult of Anastrepha serpentina assessed as reduction of egg hatching at 0.5 mg/g treated with diet measured after 9 days oviposition; format: functional; set-up: scale not given: the % may be the effect or the level left
[20] = test system: Anastrepha obliqua; experiment: Reduction of fertility in 7 days old adult of Anastrepha obliqua assessed as reduction of egg hatching at 5 mg/g treated with diet measured after 9 days oviposition; format: functional; set-up: scale not given: the % may be the effect or the level left
[21] = test system: Anastrepha obliqua; experiment: Effect on fertility in 7 days old adult female of Anastrepha obliqua at 30 mg/g treated with diet after 24 hr in presence of untreated adult male of Anastrepha obliqua; format: functional, organism-based
[22] = test system: Anastrepha serpentina; experiment: Reduction of fertility in 7 days old adult of Anastrepha serpentina assessed as reduction of egg hatching at 30 mg/g treated with diet measured after 3 days oviposition; format: functional; set-up: scale not given: the % may be the effect or the level left
[23] = test system: Anastrepha serpentina; experiment: Reduction of fertility in 7 days old adult of Anastrepha serpentina assessed as reduction of egg hatching at 5 mg/g treated with diet measured after 5 days oviposition; format: functional; set-up: scale not given: the % may be the effect or the level left
[24] = test system: Anastrepha striata; experiment: Reduction of fertility in 7 days old adult of Anastrepha striata assessed as reduction of egg hatching at 5 mg/g treated with diet measured after 3 days oviposition; format: functional; set-up: scale not given: the % may be the effect or the level left
[25] = test system: Anastrepha ludens; experiment: Reduction of fertility in 7 days old adult of Anastrepha ludens assessed as reduction of egg hatching at 30 mg/g treated with diet measured after 5 days oviposition; format: functional; set-up: scale not given: the % may be the effect or the level left
[26] = test system: Anastrepha striata; experiment: Reduction of fertility in 7 days old adult of Anastrepha striata assessed as reduction of egg hatching at 10 mg/g treated with diet measured after 7 days oviposition; format: functional; set-up: scale not given: the % may be the effect or the level left
[27] = test system: Anastrepha ludens; experiment: Effect on fecundity in 7 days old adult male of Anastrepha ludens at 30 mg/g treated with diet after 24 hr in presence of untreated adult female of Anastrepha ludens; format: functional, organism-based
[28] = test system: Anastrepha striata; experiment: Reduction of fertility in 7 days old adult of Anastrepha striata assessed as reduction of egg hatching at 30 mg/g treated with diet measured after 3 days oviposition; format: functional; set-up: scale not given: the % may be the effect or the level left
[29] = test system: Anastrepha ludens; experiment: Effect on fecundity in 7 days old adult female of Anastrepha ludens at 30 mg/g treated with diet after 24 hr in presence of untreated adult male of Anastrepha ludens; format: functional, organism-based
[30] = test system: Anastrepha obliqua; experiment: Reduction of fertility in 7 days old adult of Anastrepha obliqua assessed as reduction of egg hatching at 30 mg/g treated with diet measured after 5 days oviposition; format: functional; set-up: scale not given: the % may be the effect or the level left
[31] = test system: Anastrepha ludens; experiment: Reduction of fertility in 7 days old adult of Anastrepha ludens assessed as reduction of egg hatching at 0.5 mg/g treated with diet measured after 7 days oviposition; format: functional; set-up: scale not given: the % may be the effect or the level left
[32] = test system: Anastrepha ludens; experiment: Reduction of fertility in 7 days old adult of Anastrepha ludens assessed as reduction of egg hatching at 0.5 mg/g treated with diet measured after 5 days oviposition; format: functional; set-up: scale not given: the % may be the effect or the level left
[33] = test system: Anastrepha serpentina; experiment: Reduction of fertility in 7 days old adult of Anastrepha serpentina assessed as reduction of egg hatching at 10 mg/g treated with diet measured after 7 days oviposition; format: functional; set-up: scale not given: the % may be the effect or the level left
[34] = test system: Anastrepha obliqua; experiment: Reduction of fertility in 7 days old adult of Anastrepha obliqua assessed as reduction of egg hatching at 1 mg/g treated with diet measured after 7 days oviposition; format: functional; set-up: scale not given: the % may be the effect or the level left
[35] = test system: Anastrepha ludens; experiment: Reduction of fertility in 7 days old adult of Anastrepha ludens assessed as reduction of egg hatching at 0.5 mg/g treated with diet measured after 9 days oviposition; format: functional; set-up: scale not given: the % may be the effect or the level left
[36] = test system: Anastrepha ludens; experiment: Reduction of fertility in 7 days old adult of Anastrepha ludens assessed as reduction of egg hatching at 5 mg/g treated with diet measured after 7 days oviposition; format: functional; set-up: scale not given: the % may be the effect or the level left
[37] = test system: Anastrepha striata; experiment: Reduction of fertility in 7 days old adult of Anastrepha striata assessed as reduction of egg hatching at 30 mg/g treated with diet measured after 7 days oviposition; format: functional; set-up: scale not given: the % may be the effect or the level left
[38] = test system: Anastrepha striata; experiment: Reduction of fertility in 7 days old adult of Anastrepha striata assessed as reduction of egg hatching at 10 mg/g treated with diet measured after 3 days oviposition; format: functional; set-up: scale not given: the % may be the effect or the level left
[39] = test system: Anastrepha obliqua; experiment: Reduction of fertility in 7 days old adult of Anastrepha obliqua assessed as reduction of egg hatching at 5 mg/g treated with diet measured after 1 day oviposition; format: functional; set-up: scale not given: the % may be the effect or the level left
[40] = test system: Anastrepha obliqua; experiment: Reduction of fertility in 7 days old adult of Anastrepha obliqua assessed as reduction of egg hatching at 0.5 mg/g treated with diet measured after 1 day oviposition; format: functional; set-up: scale not given: the % may be the effect or the level left

In the case of `O=C(NC(=O)c1c(F)cccc1F)Nc1cc(Cl)c(OC(F)(F)C(F)C(F)(F)F)cc1Cl` (racemic) [LUFENURON], the Activity [1] was 16.7%, the Activity [2] was 0% and the Activity [3] was 81.7%. The Activity [4] was “inactive”, the Activity [5] was “inactive” and the Activity [6] was 80.3%. The Activity [7] was 8%, the Activity [8] was 0.7% and the Activity [9] was 78%. It also gave an Activity [10] of 3.3%, an Activity [11] of 0.7% and an Activity [12] of 30.7%. For the same molecule, the Activity [13] was 71.1%, the Activity [14] was 0.7% and the Activity [15] was 1.3%. For the same molecule, the Activity [16] was 0%, the Activity [17] was “inactive” and the Activity [18] was 78.4%. For the same molecule, the Activity [19] was 88%, the Activity [20] was 0.7% and the Activity [21] was “inactive”. For the same molecule, the Activity [22] was 72.3%, the Activity [23] was 83.1% and the Activity [24] was 4.7%. For the same molecule, the Activity [25] was 4%, the Activity [26] was 0% and the Activity [27] was “inactive”. The Activity [28] was 8.7%, the Activity [29] was “inactive” and the Activity [30] was 0%. It also gave an Activity [31] of 12%, an Activity [32] of 10.7% and an Activity [33] of 65.8%. For the same molecule, the Activity [34] was 0.7%, the Activity [35] was 16% and the Activity [36] was 28%. It also gave an Activity [37] of 0.7%, an Activity [38] of 10.7% and an Activity [39] of 1.3%. For the same molecule, the Activity [40] was 8.7%.
